Experimental data from ChEMBL document CHEMBL1201862, “PubChem BioAssay data set” (2004).
Values belong to the compound of their own block, whether it stands above or below them. The source made the active and inactive calls.

Experiments:
[1] = target: T1, Estrogen receptor (Homo sapiens, UniProt P03372);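 note: potency for inhibiting coactivator peptide recruitment to the receptor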
T1 sequence (P03372 whole entry): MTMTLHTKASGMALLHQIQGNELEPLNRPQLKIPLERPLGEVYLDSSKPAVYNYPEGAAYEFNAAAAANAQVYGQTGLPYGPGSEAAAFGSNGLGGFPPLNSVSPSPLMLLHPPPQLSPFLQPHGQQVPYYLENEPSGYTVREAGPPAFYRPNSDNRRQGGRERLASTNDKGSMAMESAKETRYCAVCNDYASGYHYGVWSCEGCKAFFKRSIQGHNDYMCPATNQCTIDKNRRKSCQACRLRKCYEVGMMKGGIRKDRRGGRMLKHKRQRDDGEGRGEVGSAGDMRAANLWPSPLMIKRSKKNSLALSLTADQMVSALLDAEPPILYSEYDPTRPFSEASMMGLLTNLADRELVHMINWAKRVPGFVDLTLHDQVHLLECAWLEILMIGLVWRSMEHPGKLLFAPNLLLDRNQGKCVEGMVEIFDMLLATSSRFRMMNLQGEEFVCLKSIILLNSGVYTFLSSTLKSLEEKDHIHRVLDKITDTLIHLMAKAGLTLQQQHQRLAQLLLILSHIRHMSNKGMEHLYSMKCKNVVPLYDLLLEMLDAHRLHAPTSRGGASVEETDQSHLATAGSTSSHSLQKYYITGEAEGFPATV

[2] = target: T2, Estrogen receptor beta (Homo sapiens, UniProt Q92731);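 note: recombinant ER-beta bound to coactivator SRC1 peptide in presence of estradiol agonist; inhibitors block coactivator peptide binding and lower the FRET signal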
[3] = target: T2, Estrogen receptor beta; assay: blockers of SRC-3 recruitment to ERβ – biochemical, ELISA, streptavidin-HRP readout, orthogonal assay, confirmation (AID 1060)
[4] = target: T3, Carboxy-terminal domain RNA polymerase II polypeptide A small phosphatase 1 (Homo sapiens, UniProt Q9GZU7); assay: CTDSP1 inhibitors, concentration-response, biochemical, absorbance readout, ultra-high-throughput screen actives (AID 540297); type: functional
T3 sequence (Q9GZU7 whole entry): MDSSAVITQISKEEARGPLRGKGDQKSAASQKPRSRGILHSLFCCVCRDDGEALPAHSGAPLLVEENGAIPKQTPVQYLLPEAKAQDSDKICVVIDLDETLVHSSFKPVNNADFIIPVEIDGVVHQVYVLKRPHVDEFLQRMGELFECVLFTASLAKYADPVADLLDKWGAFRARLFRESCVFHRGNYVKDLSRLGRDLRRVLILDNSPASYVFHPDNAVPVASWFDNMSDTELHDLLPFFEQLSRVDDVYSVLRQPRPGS

[5] = target: T4, Caspase-6 (Homo sapiens, UniProt P55212); assay: inhibition of CASP6 peptide cleavage – biochemical, VEID-R110 fluorescence, cherry-pick, dose response (AID 720632)
T4 sequence (P55212 whole entry): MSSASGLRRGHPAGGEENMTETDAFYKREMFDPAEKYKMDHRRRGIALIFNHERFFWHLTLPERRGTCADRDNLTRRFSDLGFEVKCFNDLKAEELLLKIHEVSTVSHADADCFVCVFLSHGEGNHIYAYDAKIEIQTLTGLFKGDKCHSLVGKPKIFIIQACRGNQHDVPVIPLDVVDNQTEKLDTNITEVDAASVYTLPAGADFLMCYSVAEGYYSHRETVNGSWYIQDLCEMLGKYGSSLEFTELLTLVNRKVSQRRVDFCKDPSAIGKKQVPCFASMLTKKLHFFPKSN

[6] = HPDE-C7 pancreatic duct cell viability loss – fluorescence, HTS (AID 430); type: functional, cell-based; settings: Homo sapiens
[7] = viability loss of HPDE-C7K cells – cell-based, fluorescence, HTS, primary screen (AID 431); type: functional; settings: Homo sapiens
[8] = viability of PTEN-deleted HCT116 cells – cell-based, HCT116 PTEN knockout, dose response (AID 1047); type: functional;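 note: HCT116 colon tumor cells with PTEN knocked out; cells exposed to compound for 60 hours before readout; potency for loss of cell viability measured by luminescence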
[9] = viability of HCT116 lacking mutant beta-catenin – cell-based, human colon tumor, dose response (AID 1045); type: functional;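 note: HCT116 colon tumor cells with beta catenin knocked out; cells exposed to compound for 60 hours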
[10] = target: FAD-linked sulfhydryl oxidase ALR (Homo sapiens, UniProt P55789); assay: ALR-catalysed DTT oxidation blockers – biochemical, H2O2 detection, luminescence, cherry-pick, dose response (AID 493248)
[11] = NIH-3T3 fibroblast cytotoxicity, dose response, cytotoxicity control, cell-based, fluorescence, Alamar Blue, secondary assay (AID 2327); type: functional;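 note: NIH-3T3 mouse fibroblasts cultured with fluconazole at 8 µg/mL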
[12] = test system: BJ; assay: BJ-TERT fibroblast viability loss – cell-based, RAS-independent, luminescence, dose response (AID 1933); type: functional; settings: Homo sapiens
[13] = test system: BJ; assay: cells; type: functional, cell-based; settings: Homo sapiens
[14] = fluconazole-exposed Candida albicans growth modulators – fluorescence, retest, confirmation (AID 2467); type: functional, cell-based
[15] = Trypanosoma cruzi growth suppression in host cells – NIH3T3 host cells, beta-gal luminescence, confirmation (AID 2044); type: functional, cell-based;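 note: intracellular parasites grown in NIH/3T3 mouse fibroblasts as host cells; luminescent beta-galactosidase reporter signal from transgenic T. cruzi replicating inside host cells; inhibitors lower the luminescence signal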
[16] = NIH3T3 cell viability loss – ATP luminescence, mouse fibroblasts, counter-screen, dose response (AID 2010); type: functional, cell-based;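 note: cells exposed to compound for about 90 hours before reading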
[17] = test system: BJ; assay: BJ-TERT-LT-ST fibroblast viability loss – cell-based, RAS-independent, luminescence, dose response (AID 1935); type: functional; settings: Homo sapiens;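 note: BJ fibroblasts immortalized with TERT plus LT and ST oncogenes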
[18] = DRD fibroblast viability loss – cell-based, non-viral oncogenic, luminescence, dose response (AID 1934); type: functional; settings: Homo sapiens
[19] = cells
[20] = target: T5, Short transient receptor potential channel 4 (Mus musculus, UniProt Q9QUQ5); assay: block of DAMGO-driven TRPC4 calcium entry – cell-based, HEK293 TRPC4/mu-opioid, Fluo-4 calcium, dose response (AID 434942); type: functional;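 note: potency of inhibitors blocking the TRPC4 calcium response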
T5 sequence (Q9QUQ5 whole entry): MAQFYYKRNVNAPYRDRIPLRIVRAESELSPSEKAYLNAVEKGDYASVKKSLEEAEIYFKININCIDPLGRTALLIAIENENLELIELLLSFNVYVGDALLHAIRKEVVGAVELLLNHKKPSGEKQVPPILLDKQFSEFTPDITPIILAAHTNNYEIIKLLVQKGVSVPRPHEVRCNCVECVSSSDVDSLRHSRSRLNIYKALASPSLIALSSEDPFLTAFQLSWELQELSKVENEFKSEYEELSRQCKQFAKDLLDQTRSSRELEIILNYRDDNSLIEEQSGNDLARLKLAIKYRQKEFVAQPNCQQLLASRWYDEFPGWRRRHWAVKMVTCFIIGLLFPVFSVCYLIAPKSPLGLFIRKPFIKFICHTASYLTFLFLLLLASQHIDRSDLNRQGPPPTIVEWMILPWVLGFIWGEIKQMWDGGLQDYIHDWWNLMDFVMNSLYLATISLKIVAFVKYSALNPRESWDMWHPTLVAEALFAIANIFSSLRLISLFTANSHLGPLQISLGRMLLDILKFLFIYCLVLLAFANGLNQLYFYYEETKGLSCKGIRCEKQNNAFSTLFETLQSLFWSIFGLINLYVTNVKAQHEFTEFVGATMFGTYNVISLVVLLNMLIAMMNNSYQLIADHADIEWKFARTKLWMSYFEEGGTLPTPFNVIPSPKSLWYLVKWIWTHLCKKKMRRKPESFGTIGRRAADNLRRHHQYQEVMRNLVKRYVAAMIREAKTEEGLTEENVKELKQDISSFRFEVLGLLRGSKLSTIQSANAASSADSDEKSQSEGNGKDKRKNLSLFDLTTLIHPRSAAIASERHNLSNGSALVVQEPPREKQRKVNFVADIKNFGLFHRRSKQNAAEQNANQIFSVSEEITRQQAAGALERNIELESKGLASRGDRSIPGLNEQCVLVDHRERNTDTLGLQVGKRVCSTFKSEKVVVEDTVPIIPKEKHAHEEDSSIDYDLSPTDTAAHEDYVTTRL

[21] = HIV-1 Vif–A3G interaction blockers – biochemical, TR-FRET, GST-Vif 1-94, biotin-A3G peptide, dose response retest, primary screen (AID 1117319); type: functional;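 note: TR-FRET signal of purified GST-Vif binding a biotinylated A3G peptide; inhibitors lower the FRET signal by blocking Vif and A3G binding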

T2 sequence (Q92731 whole entry): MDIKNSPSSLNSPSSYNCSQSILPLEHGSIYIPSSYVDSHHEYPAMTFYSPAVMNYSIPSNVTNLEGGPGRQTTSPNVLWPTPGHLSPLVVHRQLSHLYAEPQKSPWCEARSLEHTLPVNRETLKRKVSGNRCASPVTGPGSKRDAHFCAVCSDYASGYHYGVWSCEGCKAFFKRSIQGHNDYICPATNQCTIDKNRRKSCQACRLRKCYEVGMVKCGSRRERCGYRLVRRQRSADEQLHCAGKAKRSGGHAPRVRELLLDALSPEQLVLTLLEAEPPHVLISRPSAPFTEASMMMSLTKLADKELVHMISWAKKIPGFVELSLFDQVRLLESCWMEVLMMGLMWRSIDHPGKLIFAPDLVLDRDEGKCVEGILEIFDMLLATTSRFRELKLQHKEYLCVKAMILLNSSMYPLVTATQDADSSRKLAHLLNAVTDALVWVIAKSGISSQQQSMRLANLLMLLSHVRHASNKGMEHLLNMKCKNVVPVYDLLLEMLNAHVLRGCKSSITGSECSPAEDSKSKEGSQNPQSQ
FAD-linked sulfhydryl oxidase ALR, sequence (P55789 whole entry): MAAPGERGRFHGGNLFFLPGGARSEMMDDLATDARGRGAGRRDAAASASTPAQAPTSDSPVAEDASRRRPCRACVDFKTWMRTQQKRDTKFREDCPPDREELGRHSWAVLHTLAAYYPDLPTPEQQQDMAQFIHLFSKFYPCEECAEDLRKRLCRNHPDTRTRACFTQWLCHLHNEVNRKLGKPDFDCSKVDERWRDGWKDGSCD

IC50 [1]: 7.24 µM (active)
IC50 [2]: 6.57 µM (active)
IC50 [3]: 24.9 µM (not active)
IC50 [4]: 4.93 µM (active)
Structure (SMILES): O=C(Cn1c(=O)n(Cc2ccco2)c(=O)c2c3c(sc21)CCCCC3)Nc1ccccc1

IC50 [4]: 17.8 µM (active)
AC50 [5]: 22 µM (active)
Structure (SMILES): O=C(Nc1cccnc1Cl)c1ccc(=O)oc1

Structure (SMILES): CCc1c(C)nc(SCC(=O)CC(=O)OC(C)C)c(C#N)c1C
EC50 [6]: 7.84 µM (active)
EC50 [7]: 10.7 µM (active)

Structure (SMILES): Oc1ccc(Br)cc1-c1nc2cnccn2c1NC1CCCC1
EC50 [6]: 17.3 µM (active)
EC50 [7]: 12.5 µM (active)
EC50 [8]: 38.9 µM (active)
EC50 [9]: 36.4 µM (active)
AC50 [10]: 1.55 µM (active)

IC50 [2]: > 50 µM (not active)
Structure (SMILES): Cc1csc2ncc(C(=O)N3c4ccccc4CC3C)c(=O)n12 (centres undefined)

Structure (SMILES): CCN(CC)c1ccc(/C=C/c2cccc[n+]2C)c(OC)c1
EC50 [11]: > 150 µM (inactive)
EC50 [12]: 7.77 µM (active)
EC50 [13]: 17.9 µM (active)
EC50 [14]: 0.34 µM (active)
EC50 [15]: < 0.1 µM (active)
EC50 [16]: > 60 µM (not active)
EC50 [17]: 13.7 µM (inconclusive)
EC50 [18]: 15.2 µM (active)
AC50 [10]: 0.452 µM (active)
EC50 [19]: 0.023 µM (active)

Structure (SMILES): O=[N+]([O-])c1ccc(CN2CCN(Cc3c[nH]c4ccccc34)CC2)cc1
EC50 [15]: < 0.1 µM (active)
EC50 [16]: > 60 µM (not active)
EC50 [20]: 5.96 µM (active)
EC50 [19]: 0.249 µM (active)

IC50 [21]: > 100 µM (active)
Structure (SMILES): CCc1cccc(NC(=O)CN(C)S(=O)(=O)c2cccc3nsnc23)c1
